Results from ChEMBL document CHEMBL5441456, “ASAP - SARS-CoV-2 nsp3 macrodomain dose response” (2024).
“And” between values parts separate entries of the source, which are not always exact repeats. Equal entries are not always repeated.

Biological target: Replicase polyprotein 1ab (Severe acute respiratory syndrome coronavirus 2, UniProt P0DTD1)
Assay: Functional biochemical assay to identify treatments for viral infectious disease that targets SARS-COV-2 nsp3 macrodomain, whereby the mechanism of action displaces an ADP-Ribose modified peptide from the binding site. Utilizing a time-resolved fluorescence method to measure binding by reading the emitted fluorescence intensity in two wavelengths.

SMILES	IC50
CC(C)[C@@H](Nc1ncnc2ncccc12)c1ccc2c(c1)OCCO2	> 99500 nM
CC(C)[C@@H](Nc1ncnc2[nH]c(-c3cncc(C#N)c3)cc12)c1ccc2c(c1)OCCO2	5810 nM and 7130 nM
Cn1ncc2c(C(=O)N[C@@H](CC(=O)O)c3ccc(Br)cc3)ccnc21	70200 nM and 81700 nM
CC(C)[C@@H](Nc1ncnc2[nH]c(C(=O)N[C@H]3[C@@H]4COC[C@@H]43)cc12)c1ccc2c(c1)OCCO2	629 nM and 543 nM
CCn1ncc(-c2cc3c(N[C@@H](c4ccc5c(c4)OCCO5)C(C)C)ncnc3[nH]2)n1	1070 nM and 1240 nM
CC(C)[C@@H](CO)NC(=O)c1c[nH]c2c(NC(=O)NC3CC3)cccc12	> 99500 nM
COC(=O)c1cc2c(N[C@@H](c3ccc4c(c3)OCCO4)C(C)C)ncnc2[nH]1	5310 nM and 6500 nM
C[C@@H](C(=O)O)[C@H](NC(=O)c1ncnc2[nH]ccc12)c1ccc(Br)cc1	2850 nM and 982 nM and 1030 nM
CNCc1cc(-c2cc3c(N[C@H](c4ccc5c(c4)S(=O)(=O)CCC5)C(C)C)ncnc3[nH]2)co1	2240 nM and 1910 nM and 971 nM
CC(C)[C@@H](Nc1ncnc2[nH]c(C(=O)N(C)C)cc12)c1ccc2c(c1)OCCO2	21900 nM and 18900 nM
COc1ccc([C@@H](Cc2nn[nH]n2)NC(=O)c2nc(OC)nc3[nH]ccc23)cc1	4550 nM and 4970 nM
COc1ccc([C@@H]2CCN(c3ncnc4[nH]ccc34)C2)cc1	> 99500 nM
CC(C)[C@@H](Nc1ncnc2[nH]c(-c3cc[nH]c3)cc12)c1ccc2c(c1)OCCO2	5340 nM and 4550 nM
CC(C)[C@@H](Nc1ncnc2[nH]c(C(=O)NC[C@@H]3CCOC3)cc12)c1ccc2c(c1)OCCO2	580 nM and 1150 nM
CCNC(=O)c1cc2c(N[C@H](c3ccc4c(n3)S(=O)(=O)CCC4)C(C)C)ncnc2[nH]1	119 nM
CC(C)[C@@H](Nc1ncnc2[nH]ccc12)c1ccc2c(c1)N(C)CCO2	27800 nM and 31700 nM
O=C(O)c1ccsc1C(=O)N1CCC(c2ccn3ncc(C(=O)N4CCCCC4)c3c2)CC1	58900 nM
CC(C)[C@@H](Nc1ncnc2[nH]c(C(=O)N[C@H]3[C@@H]4CN(C)C[C@@H]43)cc12)c1ccc2c(c1)OCCO2	1100 nM and 2060 nM
O=C(c1c[nH]c(=O)cn1)N1CCC(c2ccn3ncc(C(=O)N4CCCCC4)c3c2)CC1	78400 nM
CC(C)[C@@H](Nc1ncnc2[nH]c(-c3ccoc3C#N)cc12)c1ccc2c(c1)OCCO2	2710 nM and 2670 nM
CNCc1cc(-c2cc3c(N[C@H](c4ccc5c(c4)S(=O)(=O)CCO5)C(C)C)ncnc3[nH]2)co1	57 nM
c1nc(N[C@@H](c2ccc3c(c2)OCCO3)C2CC2)c2cn[nH]c2n1	17700 nM and 19900 nM
CC(C)[C@H](Nc1ncnc2n[nH]cc12)c1ccc2c(c1)S(=O)(=O)CCC2	1560 nM and 770 nM
CC(C)[C@H](Nc1ccnc2[nH]ccc12)c1ccc2c(c1)S(=O)(=O)CCC2	> 99500 nM

SMILES	IC50
CC(C)[C@@H](Nc1ncnc2[nH]c(-c3cccc4c3NC(=O)C4)cc12)c1ccc2c(c1)S(=O)(=O)CCC2	360 nM
Cc1n[nH]c(-c2cc3c(N[C@@H](c4ccc5c(c4)OCCO5)C(C)C)ncnc3[nH]2)c1C	5160 nM and 4510 nM
Cc1nnc(CNC(=O)c2cc3c(N[C@@H](c4ccc5c(c4)OCCO5)C(C)C)ncnc3[nH]2)o1	1120 nM
O=C(O)C[C@@H](NC(=O)c1cccc2[nH]ncc12)c1ccc(Br)cc1	> 99500 nM
CNc1nccc(N[C@H](c2ccc3c(c2)S(=O)(=O)CCC3)C(C)C)n1	> 99500 nM
CC(C)[C@@H](Nc1ncnc2[nH]c(-c3ccc(CC#N)cc3)cc12)c1ccc2c(c1)OCCO2	26400 nM and 28900 nM
CC(C)[C@H](Nc1nc(N)ncc1Cl)c1ccc2c(c1)S(=O)(=O)CCC2	> 99500 nM
CC(C)[C@@H](Nc1ncnc2[nH]c(C(=O)O)cc12)c1ccc2c(c1)OCCO2	11700 nM and 11500 nM
Cn1cc([C@@H](Nc2ncnc3[nH]ccc23)C2CCC2)cn1	15000 nM
CC(C)[C@H](Nc1ncnc2c1CCO2)c1ccc2c(c1)S(=O)(=O)CCC2	> 99500 nM
CC(C)[C@@H](Nc1ncnc2[nH]ccc12)c1cnn(C)c1	3930 nM and 3170 nM
CC(C)c1n[nH]cc1-c1cc2c(N[C@@H](c3ccc4c(c3)OCCO4)C(C)C)ncnc2[nH]1	2010 nM and 2070 nM
CS(=O)(=O)Nc1ccc([C@@H](CC(=O)O)NC(=O)c2ncnc3[nH]ccc23)cc1	12100 nM and 10000 nM
Cc1[nH]c2ncnc(NC(=O)CCc3ccccc3)c2c1C	> 99500 nM
CCNC(=O)c1cc2c(N[C@@H](CC(=O)Nc3cnn(C(C)C)c3)C(C)C)ncnc2[nH]1	27700 nM and 23500 nM
c1nc(NCc2ccc3c(c2)OCCO3)c2cc[nH]c2n1	80300 nM and 93900 nM
C[C@H]1C[C@H]1c1nnc(Nc2ccc([C@@H](CC(=O)O)NC(=O)c3ncnc4[nH]ccc34)cc2)o1	7860 nM and 6040 nM
CC(C)[C@@H](Nc1ncnc2[nH]c(S(C)(=O)=O)cc12)c1ccc2c(c1)S(=O)(=O)CCC2	992 nM
CC(C)(C)[C@@H](Nc1ncnc2[nH]ccc12)c1ccc2c(c1)OCCO2	1230 nM and 1060 nM
Cn1cc([C@@H](Nc2ncnc3[nH]ccc23)c2ccc(F)cc2)cn1	> 99500 nM
CCn1ncc(-c2cc3c(N[C@@H](c4ccc5c(c4)OCCO5)C(C)C)ncnc3[nH]2)c1C	905 nM and 1060 nM
Cc1ncn(C)c1NC(=O)c1cc2c(N[C@@H](c3ccc4c(c3)OCCO4)C(C)C)ncnc2[nH]1	10700 nM and 19700 nM
CC(C)[C@@H](Nc1ncnc2[nH]c(-c3cnoc3)cc12)c1ccc2c(c1)OCCO2	29900 nM and > 99500 nM
CC(C)[C@H](Nc1ncncc1-n1ccnn1)c1ccc2c(c1)S(=O)(=O)CCC2	> 99500 nM

SMILES	IC50
CC(C)[C@@H](NCc1ncc[nH]1)c1ccc2c(c1)OCCO2	> 99500 nM
Cn1ncc(-c2cc3c(N[C@H](c4ccc5c(n4)OCCO5)C(C)(C)C)ncnc3[nH]2)c1C#N	4960 nM and 2330 nM and 3080 nM and 2420 nM and 10800 nM
Cc1cc(C)cc(CS(=O)(=O)Nc2cnc3[nH]ccc3c2)c1	> 99500 nM
Cc1[nH]c2ncnc(NC(=O)Cc3ccc(Cl)nc3)c2c1C	> 99500 nM
CC(C)[C@@H](c1ccc2c(c1)OCCO2)N(C)c1ncnc2[nH]c(-c3cnn(CC(N)=O)c3)cc12	20100 nM
O=C(O)[C@H]1C[C@@H](F)CN1c1ncnc2[nH]ccc12	> 99500 nM
CC(C)[C@@H](Nc1ncnc2[nH]c(-c3cnn(CC(=O)N(C)C)c3)cc12)c1ccc2c(c1)S(=O)(=O)CCC2	39 nM and 55 nM and 30 nM and 26 nM and 45 nM and 29 nM and 33 nM
CC(C)[C@@H](Nc1ncnc2[nH]c(-c3ccc(S(=O)(=O)NCCO)cc3)cc12)c1ccc2c(c1)S(=O)(=O)CCC2	100 nM and 90 nM and 156 nM
Cc1[nH]c2ncnc(C(=O)Nc3ccnc(Cl)c3)c2c1C	> 99500 nM
CC(C)[C@@H](Nc1ncnc2[nH]cc(C(=O)N(C)C)c12)c1ccc2c(c1)OCCO2	1950 nM and 1970 nM
CC(C)[C@@H](Nc1ncnc2[nH]c(-c3ccc(C#N)nc3)cc12)c1ccc2c(c1)OCCO2	1850 nM and 2130 nM
O=C(O)[C@@H](CC(F)F)Nc1ncnc2[nH]ccc12	80700 nM and 94400 nM
Cc1nn(C)cc1-c1cc2c(N[C@@H](c3ccc4c(c3)S(=O)(=O)CCC4)C(C)C)ncnc2[nH]1	36800 nM and 10800 nM
CC(C)[C@@H](Nc1ncnc2[nH]c(-c3cn(C)nc3C#N)cc12)c1ccc2c(c1)OCCO2	871 nM and 843 nM
CC(C)(C)[C@H](Nc1ncnc2[nH]c(-c3cnn(CC(N)=O)c3)cc12)c1ccc2c(c1)OCCO2	122 nM
NS(=O)(=O)c1ccccc1CNc1ncnc2[nH]ccc12	> 124000 nM
CC(=O)c1ccc(-c2cc3c(N[C@@H](c4ccc5c(c4)OCCO5)C(C)C)ncnc3[nH]2)o1	1510 nM and 1450 nM
CO[C@@H]1CCC[C@H]1NC(=O)c1cc2c(N[C@@H](c3ccc4c(c3)OCCO4)C(C)C)ncnc2[nH]1	1010 nM and 1340 nM
CC(C)[C@@H](Nc1cc(-c2c[nH]cn2)ncn1)c1ccc2c(c1)OCCO2	> 99500 nM
Cc1noc(C)c1-c1cc2c(N[C@@H](c3ccc4c(c3)OCCO4)C(C)C)ncnc2[nH]1	16700 nM and 18500 nM
Cc1ncc(C(=O)Nc2ncnc3[nH]c(C)c(C)c23)cn1	> 99500 nM
CC(C)[C@@H](Nc1ncnc2[nH]c(C(=O)NCCc3cn[nH]c3)cc12)c1ccc2c(c1)OCCO2	1360 nM and 3400 nM
CCn1cc(-c2cc3c(N[C@@H](c4ccc5c(c4)OCCO5)C(C)C)ncnc3[nH]2)cn1	626 nM and 652 nM
CC(C)[C@@H](Nc1ncnc2[nH]c(-c3cnn(C)c3)cc12)c1ccc2c(c1)S(=O)(=O)CCO2	43 nM and 51 nM

SMILES	IC50
O=C(Nc1ccc2c(C(=O)N[C@@H]3c4ccccc4C[C@@H]3C(=O)O)cnn2c1)NC1CC1	63800 nM and 49300 nM
CC(C)[C@@H](Nc1cc(-n2nccn2)ncn1)c1ccc2c(c1)S(=O)(=O)CCC2	> 99500 nM
CC(C)[C@@H](Nc1ncnc2[nH]c(C3=CCOC3)cc12)c1ccc2c(c1)S(=O)(=O)CCC2	82 nM and 114 nM and 244 nM
CC(C)[C@H](Nc1ncnc2c1OCCO2)c1ccc2c(c1)S(=O)(=O)CCC2	38400 nM
CCNC(=O)c1cc2c(N[C@@H](c3ccc4c(c3)S(=O)(=O)CCO4)C(C)C)ncnc2[nH]1	33 nM and 64 nM and 52 nM and 90 nM and 50 nM and 73 nM
CC(C)[C@H](Nc1ncnc2[nH]c(-c3cnn(CC(N)=O)c3)cc12)c1ccc2c(n1)OCCO2	11600 nM
CC(C)[C@@H](Nc1ncnc2[nH]c(C(=O)NC3COC3)cc12)c1ccc2c(c1)OCCO2	743 nM and 1540 nM
CC(C)[C@@H](Nc1ncnc2c1CNCC2)c1ccc2c(c1)S(=O)(=O)CCC2	> 99500 nM
CC(C)[C@@H](Nc1ncnc2[nH]c(-c3cnn(CC(N)=O)c3)cc12)c1ccc2c(c1)OCCO2	383 nM and 361 nM and 247 nM and 258 nM
CC(=O)c1ccc(S(=O)(=O)Nc2cnc3[nH]ccc3c2)cc1	> 99500 nM
COC[C@@H]1C[C@@H]1CNc1ccc([C@@H](CC(=O)O)NC(=O)c2c[nH]c3ncncc23)cc1	> 99500 nM
CC(C)[C@@H](Nc1cc(C(N)=O)ccn1)c1ccc2c(c1)S(=O)(=O)CCC2	> 99500 nM
CC(C)[C@H](Nc1ncnc(N2CCCC2)n1)c1ccc2c(c1)S(=O)(=O)CCC2	> 99500 nM
CC(C)[C@@H](Nc1ncnc2[nH]c(-c3cnn(C4CCC4)c3)cc12)c1ccc2c(c1)OCCO2	1170 nM and 1520 nM and 1400 nM
Cc1cc2c(C(=O)N[C@@H](CC(=O)O)c3ccc(Br)cc3)cccc2[nH]1	> 99500 nM
CNc1cccc([C@@H](CC(=O)O)NC(=O)c2ncnc3[nH]ccc23)c1	66300 nM and 25700 nM
Cc1ccc(-c2n[nH]cc2CNc2cnc3[nH]ncc3c2)o1	> 124000 nM
CC(C)[C@@H](Nc1ncnc2[nH]c(-c3cccc(CN4CCS(=O)(=O)CC4)c3)cc12)c1ccc2c(c1)OCCO2	3250 nM and 3450 nM and 3570 nM
Cc1cc(CNC(=O)c2cc3c(N[C@@H](c4ccc5c(c4)OCCO5)C(C)C)ncnc3[nH]2)[nH]n1	1200 nM
O=C(c1cccc(Br)c1)N1CCC(c2ccn3ncc(C(=O)N4CCCCC4)c3c2)CC1	> 124000 nM
Cc1[nH]c2ncnc(NC(=O)c3cncc(Cl)n3)c2c1C	> 99500 nM
